# B1: SalE4: Multipeptide lantibiotic bacteriocin of VAR6 composed of Pep1, Pep2, Pep3 and Pep4 (SEQ ID NOs 5-8) (protein, listed as Streptococcus salivarius)
# chain 1: MAKNTSRPEIDSLSFEVENQELSGKSGSGWFTAVQLTLAGRCGRWFTGSFECTTNNVKCG
# chain 2: MRKNNNRKEIDTLDFEVKNQELSGKSGSGWFTAVQLTLAGRCGRWFTGSYECTTNNVKCG
# chain 3: MKSKKVNTEIDTLEFEIDNQELNGTSGSGWWYTAFKMTLAGRCGLCFTCSYECTTNNVHC
# chain 4: MKQDNFEIDSLDYEINSQELNGKSAAGWSTAVRLTVQGRCGWWFTHSYECTSPNVRCG
# modifications: lantibiotic post-translational modifications
# System: S. mutans S125 biofilms
# Assay: Static microtiter plate biofilm killing assay, mono-species
# Format: cell-based, Streptococcus mutans
# Settings: for Biofilm cells killed: 24-h-old S. mutans S125 biofilm, strains 10^7 CFU/ml, chlorhexidine 10X MIC
# Description: Static biofilms of S. mutons were developed on polystyrene microtiter plates by inoculating 300 μl of BHI medium with 10 μl (10^6 CFU/ml) of S. mutons S125 from an overnight culture. After 24 h of growth, the planktonic phase was carefully removed, and fresh bacteriocin-producing medium (BAC7, BAC8) containing chlorhexidine (10×MIC), BLIS M18® (10^7 CFU/ml), BLIS K12® (10^7 CFU/ml) or VAR6 (10^7 CFU/ml) was overlayed onto established biofilms and the plates were incubated for 24 h at 37° C. The upper phase was then removed, and the biofilms were washed with sterile phosphate-buffered saline (PBS, pH 7.2) and dislodged by gentle scraping using sterile pipette tips. Biofilm cells were serially diluted and plated on BHI-erythromycin agar plates. Colonies of S. mutons were counted after 48 h of incubation at 37° C. in air with 5% CO2. All assays were performed in triplicate from three independent cultures. For the fungal-bacterial assay, biofilms were developed in Yeast extract-Peptone-Glycerol (YPG) medium and using a mixture of S. mutons/Candida albicans at a ratio of 1:1. For the dental plaque assay, biofilms were developed in BHI broth and using BHI plaque suspension supplemented with S. mutons (approx. 10^5 CFU/ml).
molecule,measurement,setting,value
[H]/N=C(\N/C(=N/[H])NCCCCCCNC(=N)NC(=N)Nc1ccc(Cl)cc1)Nc1ccc(Cl)cc1 [chlorhexidine],Biofilm cells killed,24 h treatment in BAC7,91.6%±3.29
same,Biofilm cells killed,24 h treatment in BAC8,90.1%±2.89
B1,Killing of S. mutans and inhibition of S. mutans biofilm growth,"BAC7 and BAC8 medium, and in situ in the mouth of an individual","kill S. mutans, and inhibit the growth of S. mutans biofilms"

# Source: patent publication US20230381249A1, “PROBIOTIC STRAIN FOR COUNTERING CARIES PATHOGENS” (The Governing Council of the University of Toronto, priority 2022, published 2023)
